This assay concerns the target T1, human M1 receptor (hCHRM1) (Homo sapiens, UniProt P11229).
T1 construct: expressed in transfected cells
T1 sequence (P11229 1-460): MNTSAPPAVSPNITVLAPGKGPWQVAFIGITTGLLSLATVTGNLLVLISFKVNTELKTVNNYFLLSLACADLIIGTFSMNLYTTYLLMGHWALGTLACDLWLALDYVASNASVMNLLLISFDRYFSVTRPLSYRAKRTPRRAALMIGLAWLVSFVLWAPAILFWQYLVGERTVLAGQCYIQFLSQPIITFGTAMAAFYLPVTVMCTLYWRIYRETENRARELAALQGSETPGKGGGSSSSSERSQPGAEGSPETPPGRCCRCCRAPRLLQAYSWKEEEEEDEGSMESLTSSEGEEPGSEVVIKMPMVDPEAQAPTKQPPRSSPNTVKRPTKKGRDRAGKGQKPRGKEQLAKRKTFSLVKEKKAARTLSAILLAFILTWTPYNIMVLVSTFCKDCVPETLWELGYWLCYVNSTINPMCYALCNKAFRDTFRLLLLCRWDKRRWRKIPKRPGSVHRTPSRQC
Put plainly: Measurement of M1 receptor positive allosteric modulator (M1PAM) activity, calcium fluorescence (FLIPRtetra). The following applies: 10 μM test compound with acetylcholine at EC20 (final 0.6-0.8 nM); 100% = acetylcholine 1 μM, 0% = DMSO; CHO-K1 cells expressing hCHRM1. The class given is cell-based. Here is the method:
Measurement of M1 Receptor Positive Allosteric Modulator (M1PAM) Activity
The activity of a test compound in the presence of acetylcholine at EC20 concentration (final concentration 0.6-0.8 nM), which affords an action corresponding to about 20% of the maximum activity, was measured as PAM activity. The method is as follows. CHO-K1 cells stably expressing a human M1 receptor (hCHRM1) were plated on a 384-well black clear bottom plate (BD Falcon) at 5,000 cells/well, and cultured in an incubator at 37° C., 5% CO2 for 1 day. The medium in the cell plate was removed, and assay buffer A containing calcium indicator (Recording medium (DOJINDO LABORATORIES), 0.1% BSA (Wako Pure Chemical Industries, Ltd.), 2.5 μg/mL Fluo-4 AM (DOJINDO LABORATORIES), 0.08% Pluronic F127 (DOJINDO LABORATORIES), 1.25 mM probenecid (DOJINDO LABORATORIES)) was added at 30 μL/well. The cells were left standing in the incubator at 37° C., 5% CO2 for 30 min, and further left standing at room temperature for 30 min. A test compound prepared by diluting with assay buffer B (HBSS (Invitrogen), 20 mM HEPES (Invitrogen), 0.1% BSA) containing 2.4-3.2 nM acetylcholine was added at 10 μL/well, and the fluorescence was measured by FLIPRtetra (Molecular Devices) for 1 min every for 1 second. With the definition that the amount of change in the fluorescence on addition of acetylcholine (final concentration 1 μM) is 100% and that on addition of DMSO instead of a test compound is 0%, the activity (%) of the test compound was calculated, and the inflection point in the concentration-dependent curve of the test compound was calculated as IP values.

For `COc1nc(C(=O)N[C@H]2COCC[C@@H]2O)cc(Cc2ccc(-n3cccn3)cc2)c1C` [Example 92, 1,5-anhydro-2,4-dideoxy-2-(((6-methoxy-5-methyl-4-(4-(1H-pyrazol-1-yl)benzyl)pyridin-2-yl)carbonyl)amino)-L-threo-pentitol], the “activity (%) at 10 μM” value worked out at 99%. With `Cc1cnc(C(=O)N[C@H]2c3ccccc3C[C@H]2O)cc1Cc1ccc(-c2ccn(C)n2)cc1` [Example 24, N-((1S,2R)-2-hydroxy-2,3-dihydro-1H-inden-1-yl)-5-methyl-4-(4-(1-methyl-1H-pyrazol-3-yl)benzyl)pyridine-2-carboxamide], the “activity (%) at 10 μM” value is on record as 87%. For the compound `Cc1cnc(C(=O)N[C@H]2COCC[C@@H]2O)cc1Cc1ccc(-c2ccn(C)n2)cc1` [Example 2, 1,5-anhydro-2,4-dideoxy-2-(((5-methyl-4-(4-(1-methyl-1H-pyrazol-3-yl)benzyl)pyridin-2-yl)carbonyl)amino)-L-threo-pentitol], the “activity (%) at 10 μM” value is 100%. Turning to `COc1cnc(C(=O)N[C@H]2CCCC[C@@H]2O)cc1Cc1ccc(Cl)nc1` [Example 61, 4-((6-chloropyridin-3-yl)methyl)-N-((1S,2S)-2-hydroxycyclohexyl)-5-methoxypyridine-2-carboxamide], the “activity (%) at 10 μM” value is recorded as 108%. For `O=C(N[C@H]1CCCC[C@@H]1O)c1cc(Cc2ccc(-n3cccn3)cc2)c(OC(F)F)cn1` [Example 94, 5-(difluoromethoxy)-N-((1S,2S)-2-hydroxycyclohexyl)-4-(4-(1H-pyrazol-1-yl)benzyl)pyridine-2-carboxamide] the value was 101%; for `Cc1cnc(C(=O)N[C@H]2CCC[C@@H]2O)cc1Cc1ccc(-n2cccn2)cc1` [Example 5, N-((1S,2S)-2-hydroxycyclopentyl)-5-methyl-4-(4-(1H-pyrazol-1-yl)benzyl)pyridine-2-carboxamide], 91%. For `Cn1ccc(-c2ccc(Cc3cc(C(=O)N[C@H]4CCCC[C@@H]4O)ncc3C(F)F)cc2)n1` [Example 41, 5-(difluoromethyl)-N-((1S,2S)-2-hydroxycyclohexyl)-4-(4-(1-methyl-1H-pyrazol-3-yl)benzyl)pyridine-2-carboxamide] the value was 95%. Then `O=C(N[C@H]1COCC[C@@H]1O)c1cc(Cc2ccc(-n3cccn3)cc2)c(C2CC2)cn1` [Example 47, 1,5-anhydro-2-(((5-cyclopropyl-4-(4-(1H-pyrazol-1-yl)benzyl)pyridin-2-yl)carbonyl)amino)-2,4-dideoxy-L-threo-pentitol], with 96%; and `Cc1nc(C(=O)N[C@H]2CCCC[C@@H]2O)cc(Cc2ccc(-n3cccn3)cc2)c1Cl` [Example 98, 5-chloro-N-((1S,2S)-2-hydroxycyclohexyl)-6-methyl-4-(4-(1H-pyrazol-1-yl)benzyl)pyridine-2-carboxamide], with 94%.

Regarding `COc1ccc(Cc2cc(C(=O)N[C@H]3CCCC[C@@H]3O)ncc2C)cc1` [Example 19, N-((1S,2S)-2-hydroxycyclohexyl)-4-(4-methoxybenzyl)-5-methylpyridine-2-carboxamide], the “activity (%) at 10 μM” value is listed as 104%.

Consider `Cc1ccc(Cc2cc(C(=O)N[C@H]3COCC[C@@H]3O)nc(C)c2Cl)cn1` [Example 111, 1,5-anhydro-2-(((5-chloro-6-methyl-4-((6-methylpyridin-3-yl)methyl)pyridin-2-yl)carbonyl)amino)-2,4-dideoxy-L-threo-pentitol], for which the “activity (%) at 10 μM” value is given as 90%. For `COc1nc(C(=O)N[C@H]2CCC[C@@H]2O)cc(Cc2ccc(-n3cccn3)cc2)c1C` [Example 93, N-((1S,2S)-2-hydroxycyclopentyl)-6-methoxy-5-methyl-4-(4-(1H-pyrazol-1-yl)benzyl)pyridine-2-carboxamide] the value was 105%; for `Cc1nc(C(=O)N[C@H]2COCC[C@@H]2O)cc(Cc2ccc(C#N)cc2)c1Cl` [Example 101, 1,5-anhydro-2-(((5-chloro-4-(4-cyanobenzyl)-6-methylpyridin-2-yl)carbonyl)amino)-2,4-dideoxy-L-threo-pentitol], 105%; for `Cc1nc(C(=O)N[C@H]2COCC[C@@H]2O)cc(Cc2ccc(-c3ccn(C)n3)nc2)c1C` [Example 86, 1,5-anhydro-2,4-dideoxy-2-(((5,6-dimethyl-4-((6-(1-methyl-1H-pyrazol-3-yl)pyridin-3-yl)methyl)pyridin-2-yl)carbonyl)amino)-L-threo-pentitol], 95%. `Cc1nc(C(=O)N[C@H]2CCCC[C@@H]2O)cc(Cc2ccc(-c3cnn(C)c3)cc2)c1C` [Example 79, N-((1S,2S)-2-hydroxycyclohexyl)-5,6-dimethyl-4-(4-(1-methyl-1H-pyrazol-4-yl)benzyl)pyridine-2-carboxamide]: the “activity (%) at 10 μM” value was 106%. For `Cc1nc(C(=O)N[C@H]2CCCC[C@@H]2O)cc(Cc2ccc(-n3cccn3)cc2)c1C#N` [Example 112, 5-cyano-N-((1S,2S)-2-hydroxycyclohexyl)-6-methyl-4-(4-(1H-pyrazol-1-yl)benzyl)pyridine-2-carboxamide] the value was 91%; for `COc1cnc(C(=O)N[C@H]2CCCC[C@@H]2O)cc1Cc1ccc(-c2cnn(C)c2)nc1` [Example 59, N-((1S,2S)-2-hydroxycyclohexyl)-5-methoxy-4-((6-(1-methyl-1H-pyrazol-4-yl)pyridin-3-yl)methyl)pyridine-2-carboxamide], 90%; for `Cc1nc(C(=O)N[C@H]2COCC[C@@H]2O)cc(Cc2ccc(-c3ccn(C)n3)cc2)c1C` [Example 82, 1,5-anhydro-2,4-dideoxy-2-(((5,6-dimethyl-4-(4-(1-methyl-1H-pyrazol-3-yl)benzyl)pyridin-2-yl)carbonyl)amino)-L-threo-pentitol], 103%.

Regarding `COc1nc(C(=O)N[C@H]2COCC[C@@H]2O)cc(Cc2ccc(-c3ccn(C)n3)cc2)c1C` [Example 87, 1,5-anhydro-2,4-dideoxy-2-(((6-methoxy-5-methyl-4-(4-(1-methyl-1H-pyrazol-3-yl)benzyl)pyridin-2-yl)carbonyl)amino)-L-threo-pentitol], the “activity (%) at 10 μM” value came to 92%. For `Cc1nc(C(=O)N[C@H]2CCCC[C@@H]2O)cc(Cc2ccc(-c3ccn(C)n3)cc2)c1C` [Example 81, N-((1S,2S)-2-hydroxycyclohexyl)-5,6-dimethyl-4-(4-(1-methyl-1H-pyrazol-3-yl)benzyl)pyridine-2-carboxamide], the “activity (%) at 10 μM” value was 97%. Consider `Cc1cnc(C(=O)NC2CC2(F)F)cc1Cc1ccc(-c2ccn(C)n2)cc1` (centres unmarked) [Example 22, N-(2,2-difluorocyclopropyl)-5-methyl-4-(4-(1-methyl-1H-pyrazol-3-yl)benzyl)pyridine-2-carboxamide], for which the “activity (%) at 10 μM” value was 77%.

On to `COc1nc(C(=O)N[C@H]2CCCC[C@@H]2O)cc(Cc2ccc(-n3cccn3)cc2)c1C` [Example 91, N-((1S,2S)-2-hydroxycyclohexyl)-6-methoxy-5-methyl-4-(4-(1H-pyrazol-1-yl)benzyl)pyridine-2-carboxamide], for which the “activity (%) at 10 μM” value was found to be 98%. For the compound `COc1ccc(Cc2cc(C)nc(C(=O)N[C@H]3CCCC[C@@H]3O)c2)cc1` [Example 71, N-((1S,2S)-2-hydroxycyclohexyl)-4-(4-methoxybenzyl)-6-methylpyridine-2-carboxamide], the “activity (%) at 10 μM” value turned out to be 69%.

As for `COc1ccc(Cc2cc(C(=O)N[C@H]3COCC[C@@H]3O)nc(C)c2Cl)cc1` [Example 102, 1,5-anhydro-2-(((5-chloro-4-(4-methoxybenzyl)-6-methylpyridin-2-yl)carbonyl)amino)-2,4-dideoxy-L-threo-pentitol], the “activity (%) at 10 μM” value was found to be 104%.

In the case of `COc1cc(Cc2ccc(-n3cccn3)cc2)cc(C(=O)N[C@H]2CCCC[C@@H]2O)n1` [Example 69, N-((1S,2S)-2-hydroxycyclohexyl)-6-methoxy-4-(4-(1H-pyrazol-1-yl)benzyl)pyridine-2-carboxamide], the “activity (%) at 10 μM” value was 100%. As for `Cc1nc(C(=O)N[C@H]2CCCC[C@@H]2O)cc(Cc2ccc(Cl)nc2)c1Cl` [Example 103, 5-chloro-4-((6-chloropyridin-3-yl)methyl)-N-((1S,2S)-2-hydroxycyclohexyl)-6-methylpyridine-2-carboxamide], the “activity (%) at 10 μM” value was 109%.

Source of the values: US10214508B2, “Nitrogen-containing heterocyclic compound” (Takeda Pharmaceutical Company Limited, priority 2014, dated 2019).
